Data from patent publication US20160151370A1, “Substituted Benzylpyrazoles” (BAYER PHARMA AKTIENGESELLSCHAFT, priority 2013, published 2016).

Key:
[1] = target: T1, catalytic domain of human Bub1 (amino acids 704-1085) (Homo sapiens, UniProt O43683); assay: Bub1 kinase assay (TR-FRET); format: biochemical; conditions: 10 μM ATP, 1 μM peptide substrate, median value, read-out: Biological Assay 1: Bub1 kinase assay median IC50
T1 construct: catalytic domain of human Bub1 (amino acids 704-1085); His6 (N); made in house; host or cells: Hi5 insect cells
From the text: Bub1-inhibitory activities of compounds described in the present invention were quantified using a time-resolved fluorescence energy transfer (TR-FRET) kinase assay which measures phosphorylation of the synthetic peptide Biotin-Ahx-[…] (C-terminus in amide form), purchased from e.g. Biosyntan (Berlin, Germany) by the (recombinant) catalytic domain of human Bub1 (amino acids 704-1085), expressed in Hi5 insect cells with an N-terminal His6-tag and purified by affinity-(Ni-NTA) and size exclusion chromatography.
In a typical assay 11 different concentrations of each compound (0.1 nM, 0.33 nM, 1.1 nM, 3.8 nM, 13 nM, 44 nM, 0.15 μM, 0.51 μM, 1.7 μM, 5.9 μM and 20 μM) were tested in duplicate within the same microtiter plate. To this end, 100-fold concentrated compound solutions (in DMSO) were previously prepared by serial dilution (1:3.4) of 2 mM stocks in a clear low volume 384-well source microtiter plate (Greiner Bio-One, Frickenhausen, Germany), from which 50 nL of compounds were transferred into a black low volume test microtiter plate from the same supplier. Subsequently, 2 μL of Bub1 (the final concentration of Bub1 was adjusted depending on the activity of the enzyme lot in order to be within the linear dynamic range of the assay: typically ˜200 ng/mL were used) in aqueous assay buffer [50 mM Tris/HCl pH 7.5, 10 mM magnesium chloride (MgCl2), 200 mM potassium chloride (KCl), 1.0 mM dithiothreitol (DTT), 0.1 mM sodium ortho-vanadate, 1% (v/v) glycerol, 0.01% (w/v) bovine serum albumine (BSA), 0.005% (v/v) Trition X-100 (Sigma), 1× Complete EDTA-free protease inhibitor mixture (Roche)] were added to the compounds in the test plate and the mixture was incubated for 15 min at 22° C. to allow pre-equilibration of the putative enzyme-inhibitor complexes before the start of the kinase reaction, which was initiated by the addition of 3 μL 1.67-fold concentrated solution (in assay buffer) of adenosine-tri-phosphate (ATP, 10 μM final concentration) and peptide substrate (1 μM final concentration). […] Subsequently, the amount of product was evaluated by measurement of the resonance energy transfer from the Eu-chelate-antibody complex recognizing the Phosphoserine residue to the streptavidin-XL665 bound to the biotin moiety of the peptide. To this end, the fluorescence emissions at 620 nm and 665 nm after excitation at 330-350 nm were measured in a TR-FRET plate reader, e.g. a Rubystar or Pherastar (both from BMG Labtechnologies, Offenburg, Germany) or a Viewlux (Perkin-Elmer) and the ratio of the emissions (665 nm/622 nm) was taken as indicator for the amount of phosphorylated substrate. […] IC50 values were calculated by fitting the normalized inhibition data to a 4-parameter logistic equation (Minimum, Maximum, IC50, Hill; Y=Max+(Min−Max)/(1+(X/IC50)Hill)).

[2] = test system: HeLa human cervical cancer cell line; assay: Proliferation assay (crystal violet staining); format: cell-based; conditions: 96 h, 4 days incubation, median value, read-out: Biological Assay 2: Proliferation assay (HeLa cell line) median IC50
Method: Cultivated tumor cells (cells were ordered from ATCC) were plated at a density of 3000 cells/well in a 96-well multititer plate in 200 μL of growth medium supplemented 10% fetal calf serum. After 24 hours, the cells of one plate (zero-point plate) were stained with crystal violet (see below), while the medium of the other plates was replaced by fresh culture medium (200 μL), to which the test substances were added in various concentrations (0 μM, as well as in the range of 0.001-10 μM; the final concentration of the solvent dimethyl sulfoxide was 0.5%). The cells were incubated for 4 days in the presence of test substances. Cell proliferation was determined by staining the cells with crystal violet: the cells were fixed by adding 20 μL/measuring point of an 11% glutaric aldehyde solution for 15 minutes at room temperature. After three washing cycles of the fixed cells with water, the plates were dried at room temperature. The cells were stained by adding 100 μL/measuring point of a 0.1% crystal violet solution (pH 3.0). […] Absorbtion was determined by photometry at a wavelength of 595 nm. The change of cell number, in percent, was calculated by normalization of the measured values to the absorbtion values of the zero-point plate (=0%) and the absorbtion of the untreated (0 μm) cells (=100%). The IC50 values were determined by means of a 4 parameter fit.

T1 sequence (O43683 704-1085): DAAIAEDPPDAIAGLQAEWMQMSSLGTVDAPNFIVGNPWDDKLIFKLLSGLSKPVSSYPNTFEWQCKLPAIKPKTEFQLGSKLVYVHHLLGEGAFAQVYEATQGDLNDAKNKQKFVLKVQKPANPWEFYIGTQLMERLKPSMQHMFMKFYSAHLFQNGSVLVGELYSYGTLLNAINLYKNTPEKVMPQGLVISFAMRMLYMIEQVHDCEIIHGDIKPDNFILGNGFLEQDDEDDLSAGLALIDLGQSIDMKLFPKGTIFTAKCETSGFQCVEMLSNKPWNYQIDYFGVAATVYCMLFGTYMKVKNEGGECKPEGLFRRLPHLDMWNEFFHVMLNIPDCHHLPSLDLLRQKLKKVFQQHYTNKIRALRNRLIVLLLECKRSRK

Row | SMILES | IC50 [1] | IC50 [2]
1 | CCOc1cc(F)c(Cn2nc(-c3ncc(OCCCS(C)(=N)=O)c(Nc4ccncc4)n3)c(C)c2C2CC2)c(F)c1 (single isomer, unassigned; (+)) [Example 2-2-3, (+)-2-[5-cyclopropyl-1-(4-ethoxy-2,6-difluorobenzyl)-4-methyl-1H-pyrazol-3-yl]-5-[3-(S-methylsulfonimidoyl)propoxy]-N-(pyridin-4-yl)pyrimidin-4-amine] | 5.7 nM | –
2 | CCOc1cc(F)c(Cn2nc(-c3ncc(OCCCS(C)(=N)=O)c(Nc4ccncc4)n3)c(C)c2C2CC2)c(F)c1 (racemic) [Example 2-2-1, 2-[5-cyclopropyl-1-(4-ethoxy-2,6-difluorobenzyl)-4-methyl-1H-pyrazol-3-yl]-5-[3-(S-methylsulfonimidoyl)propoxy]-N-(pyridin-4-yl)pyrimidin-4-amine] | 8.4 nM | 8200 nM
3 | CCOc1cc(F)c(Cn2nc(-c3ncc(OCCCS(C)(=O)=NC(=O)C(F)(F)F)c(Nc4ccncc4)n3)c(C)c2C2CC2)c(F)c1 (centres unmarked) [Example 2-1-1, N-{[3-({2-[5-cyclopropyl-1-(4-ethoxy-2,6-difluorobenzyl)-4-methyl-1H-pyrazol-3-yl]-4-(pyridin-4-ylamino)pyrimidin-5-yl}oxy)propyl](methyl)oxido-λ^6-sulfanylidene}-2,2,2-trifluoroacetamide] | 11 nM | –
4 | CCOc1cc(F)c(Cn2nc(-c3ncc(OCCCS(C)(=N)=O)c(Nc4ccncc4)n3)c(C)c2C2CC2)c(F)c1 (single isomer, unassigned; (-)) [Example 2-2-2, (−)-2-[5-cyclopropyl-1-(4-ethoxy-2,6-difluorobenzyl)-4-methyl-1H-pyrazol-3-yl]-5-[3-(S-methylsulfonimidoyl)propoxy]-N-(pyridin-4-yl)pyrimidin-4-amine] | 9.5 nM | –
